From ChEMBL document CHEMBL3046191, “Strong resistance to phosphine in the rusty grain beetle, Cryptolestes ferrugineus (Stephens) (Coleoptera: Laemophloeidae): its characterisation, a rapid assay for diagnosis and its distribution in Australia” (2013)
≈ marks a conversion by molar mass, not a printed value.

What was measured:
Cryptolestes ferrugineus [1] = assay: whole plant or invertebrate; conditions: QNCF122, 144 h
Description: Insecticidal activity against strongly phosphine-resistant Cryptolestes ferrugineus (rusty grain beetle) QNCF122 after 144 hr by FAO method

Cryptolestes ferrugineus [2] = assay: Insecticidal activity against phosphine-weakly resistant Cryptolestes ferrugineus (rusty grain beetle) Lab-WR after 72 hr by FAO method
Cryptolestes ferrugineus [3] = assay: whole plant or invertebrate; conditions: QQCF691, 144 h
Description: Insecticidal activity against strongly phosphine-resistant Cryptolestes ferrugineus (rusty grain beetle) QQCF691 after 144 hr by FAO method

Cryptolestes ferrugineus [4] = assay: whole plant or invertebrate; conditions: QNCF83, 144 h
Description: Insecticidal activity against strongly phosphine-resistant Cryptolestes ferrugineus (rusty grain beetle) QNCF83 after 144 hr by FAO method

Cryptolestes ferrugineus [5] = assay: Insecticidal activity against phosphine-weakly resistant Cryptolestes ferrugineus (rusty grain beetle) Lab-WR after 48 hr by FAO method
Cryptolestes ferrugineus [6] = assay: whole plant or invertebrate; conditions: Lab-StR, 144 h
Description: Insecticidal activity against phosphine-resistant Cryptolestes ferrugineus (rusty grain beetle) Lab-StR after 144 hr by FAO method

Cryptolestes ferrugineus [7] = assay: Insecticidal activity against Cryptolestes ferrugineus (rusty grain beetle) Lab-S after 48 hr by FAO method
Cryptolestes ferrugineus [8] = assay: Insecticidal activity against Cryptolestes ferrugineus (rusty grain beetle) Lab-S after 72 hr by FAO method
Cryptolestes ferrugineus [9] = assay: whole plant or invertebrate; conditions: QNCF102, 144 h
Description: Insecticidal activity against strongly phosphine-resistant Cryptolestes ferrugineus (rusty grain beetle) QNCF102 after 144 hr by FAO method

Cryptolestes ferrugineus [10] = assay: whole plant or invertebrate; conditions: QNCF129, 144 h
Description: Insecticidal activity against strongly phosphine-resistant Cryptolestes ferrugineus (rusty grain beetle) QNCF129 after 144 hr by FAO method

Cryptolestes ferrugineus [11] = assay: whole plant or invertebrate; conditions: Lab-WR, 144 h
Description: Insecticidal activity against phosphine-weakly resistant Cryptolestes ferrugineus (rusty grain beetle) Lab-WR after 144 hr by FAO method

Cryptolestes ferrugineus [12] = assay: Insecticidal activity against phosphine-resistant Cryptolestes ferrugineus (rusty grain beetle) Lab-StR after 72 hr by FAO method
Cryptolestes ferrugineus [13] = assay: whole plant or invertebrate; conditions: QNCF130, 144 h
Description: Insecticidal activity against strongly phosphine-resistant Cryptolestes ferrugineus (rusty grain beetle) QNCF130 after 144 hr by FAO method

Cryptolestes ferrugineus [14] = assay: whole plant or invertebrate; conditions: QNCF110, 144 h
Description: Insecticidal activity against strongly phosphine-resistant Cryptolestes ferrugineus (rusty grain beetle) QNCF110 after 144 hr by FAO method

Cryptolestes ferrugineus [15] = assay: whole plant or invertebrate; conditions: QNCF134, 144 h
Description: Insecticidal activity against strongly phosphine-resistant Cryptolestes ferrugineus (rusty grain beetle) QNCF134 after 144 hr by FAO method

Cryptolestes ferrugineus [16] = assay: whole plant or invertebrate; conditions: Lab-S, 144 h
Description: Insecticidal activity against Cryptolestes ferrugineus (rusty grain beetle) Lab-S after 144 hr by FAO method

Cryptolestes ferrugineus [17] = assay: whole plant or invertebrate; conditions: QNCF101, 144 h
Description: Insecticidal activity against strongly phosphine-resistant Cryptolestes ferrugineus (rusty grain beetle) QNCF101 after 144 hr by FAO method

Cryptolestes ferrugineus [18] = assay: whole plant or invertebrate; conditions: QNCF104, 144 h
Description: Insecticidal activity against strongly phosphine-resistant Cryptolestes ferrugineus (rusty grain beetle) QNCF104 after 144 hr by FAO method

Cryptolestes ferrugineus [19] = assay: Insecticidal activity against phosphine-resistant Cryptolestes ferrugineus (rusty grain beetle) Lab-StR after 48 hr by FAO method

P [PHOSPHINE]
LC50 (Cryptolestes ferrugineus [1]): 1.77 mg/L (≈ 52.1 µM)
LC50 (Cryptolestes ferrugineus [2]): 0.037 mg/L (≈ 1.09 µM)
LC50 (Cryptolestes ferrugineus [3]): 1.34 mg/L (≈ 39.4 µM)
LC50 (Cryptolestes ferrugineus [4]): 1.3 mg/L (≈ 38.2 µM)
LC50 (Cryptolestes ferrugineus [5]): 0.056 mg/L (≈ 1.65 µM)
LC50 (Cryptolestes ferrugineus [6]): 1.66 mg/L (≈ 48.8 µM)
LC50 (Cryptolestes ferrugineus [7]): 0.005 mg/L (≈ 0.147 µM)
LC50 (Cryptolestes ferrugineus [8]): 0.004 mg/L (≈ 0.118 µM)
LC50 (Cryptolestes ferrugineus [9]): 1.31 mg/L (≈ 38.5 µM)
LC50 (Cryptolestes ferrugineus [10]): 1.5 mg/L (≈ 44.1 µM)
LC50 (Cryptolestes ferrugineus [11]): 0.022 mg/L (≈ 0.647 µM)
LC50 (Cryptolestes ferrugineus [12]): 6.37 mg/L (≈ 187 µM)
LC50 (Cryptolestes ferrugineus [13]): 1.42 mg/L (≈ 41.8 µM)
LC50 (Cryptolestes ferrugineus [14]): 0.97 mg/L (≈ 28.5 µM)
LC50 (Cryptolestes ferrugineus [15]): 1.22 mg/L (≈ 35.9 µM)
LC50 (Cryptolestes ferrugineus [16]): 0.003 mg/L (≈ 0.0882 µM)
LC50 (Cryptolestes ferrugineus [17]): 1.12 mg/L (≈ 32.9 µM)
LC50 (Cryptolestes ferrugineus [18]): 1.21 mg/L (≈ 35.6 µM)
LC50 (Cryptolestes ferrugineus [19]): 6.57 mg/L (≈ 193 µM)
